US20230021483A1, “[…] […] METHOD AND CLASSIFICATION OF PHARMACEUTICAL COMPONENTS BY USING TRANSCRIPTOMES” (National Institutes of Biomedical Innovation, Health and …, priority 2016, published 2023)

Tested on: preferentially upregulated genes in LV, SP, LN
Assay: Z-score-based differential gene expression analysis (adjuvant group- or adjuvant-associated genes, 40 module mapping, TargetMine annotation)
Format: in vivo, C57BL/6 mice
Conditions: for Adar 1425405_a_at (Group G1, Modules 20) / Adar 1434268_at (Group G1, Modules 20) / Ddx58 1436562_at (Group G1, Modules 20) / Ddx58 1456890_at (Group G1, Modules 20) / Eif2ak2 1422005_at (Group G1, Modules 20) / G3bp2 1421323_a_at (Group G1, Modules 20) / Gm9706///Isg15 1431591_s_at (Group G1, Modules 20) / H2-T10///H2-T22///H2-T9 1449875_s_at (Group G1, Modules 20) / Ifih1 1426276_at (Group G1, Modules 20) / Ifit1 1450783_at (Group G1, Modules 20) / Ifit3 1449025_at (Group G1, Modules 20) / Irf7 1417244_a_at (Group G1, Modules 20) / Irgm1 1418825_at (Group G1, Modules 20) / Mndal 1426906_at (Group G1, Modules 20) / Pml 1448757_at (Group G1, Modules 20) / Pml 1456103_at (Group G1, Modules 20) / Rnf213 1455500_at (Group G1, Modules 20) / Rsad2 1436058_at (Group G1, Modules 20) / Shisa5 1423986_a_at (Group G1, Modules 20) / Shisa5 1437503_a_at (Group G1, Modules 20) / Stat1 1450033_a_at (Group G1, Modules 20) / Stat1 1450034_at (Group G1, Modules 20) / Tdrd7 1426716_at (Group G1, Modules 20) / Tor1aip2 1418115_s_at (Group G1, Modules 20) / Tor1aip2 1418116_at (Group G1, Modules 20) / Tor1aip2 1435526_at (Group G1, Modules 20) / Trim12a 1437432_a_at (Group G1, Modules 20) / Uba7 1426970_a_at (Group G1, Modules 20): IP, LV
Procedure, shortened: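 Gene groups for each organ were built from combined z-score cutoffs across adjuvants, ranging from z>1 to z>3. Scores came from fold changes standardized per gene over the whole organ data set, with the three replicate z-scores added per adjuvant; sums above 3 marked preferential expression.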

[1] = liver (LV), gene group G1, module 20, individual mice x1-x3, route ID/IP/IN

K3: B class CpG ODN (ATCGACTCTCGAGCGTTCTC), TLR9 ligand (chemistry not given here)
Adar 1425405_a_at (Group G1, Modules 20) (sample x1): −0.5
Adar 1434268_at (Group G1, Modules 20) (sample x1): −0.6
Ddx58 1436562_at (Group G1, Modules 20) (sample x1): −0.5
Ddx58 1456890_at (Group G1, Modules 20) (sample x1): −0.4
Eif2ak2 1422005_at (Group G1, Modules 20) (sample x1): −0.6
G3bp2 1421323_a_at (Group G1, Modules 20) (sample x1): −0.6
Gm9706///Isg15 1431591_s_at (Group G1, Modules 20) (sample x1): −0.5
H2-T10///H2-T22///H2-T9 1449875_s_at (Group G1, Modules 20) (sample x1): −0.2
Ifih1 1426276_at (Group G1, Modules 20) (sample x1): −0.4
Ifit1 1450783_at (Group G1, Modules 20) (sample x1): −0.5
Ifit3 1449025_at (Group G1, Modules 20) (sample x1): −0.5
Irf7 1417244_a_at (Group G1, Modules 20) (sample x1): −0.5
Irgm1 1418825_at (Group G1, Modules 20) (sample x1): −0.5
Mndal 1426906_at (Group G1, Modules 20) (sample x1): −0.5
Pml 1448757_at (Group G1, Modules 20) (sample x1): −0.5
Pml 1456103_at (Group G1, Modules 20) (sample x1): −0.5
Rnf213 1455500_at (Group G1, Modules 20) (sample x1): −0.5
Rsad2 1436058_at (Group G1, Modules 20) (sample x1): −0.5
Shisa5 1423986_a_at (Group G1, Modules 20) (sample x1): −0.6
Shisa5 1437503_a_at (Group G1, Modules 20) (sample x1): −0.5
Stat1 1450033_a_at (Group G1, Modules 20) (sample x1): −0.6
Stat1 1450034_at (Group G1, Modules 20) (sample x1): −0.5
Tdrd7 1426716_at (Group G1, Modules 20) (sample x1): −0.2
Tor1aip2 1418115_s_at (Group G1, Modules 20) (sample x1): −0.5
Tor1aip2 1418116_at (Group G1, Modules 20) (sample x1): −0.4
Tor1aip2 1435526_at (Group G1, Modules 20) (sample x1): −0.3
Trim12a 1437432_a_at (Group G1, Modules 20) (sample x1): −0.5
Uba7 1426970_a_at (Group G1, Modules 20) (sample x1): −0.5
Adar 1425405_a_at (Group G1, Modules 20) (sample x2): −0.5
Adar 1434268_at (Group G1, Modules 20) (sample x2): −0.8
Ddx58 1436562_at (Group G1, Modules 20) (sample x2): −0.2
Ddx58 1456890_at (Group G1, Modules 20) (sample x2): −0.3
Eif2ak2 1422005_at (Group G1, Modules 20) (sample x2): −0.7
G3bp2 1421323_a_at (Group G1, Modules 20) (sample x2): −0.4
Gm9706///Isg15 1431591_s_at (Group G1, Modules 20) (sample x2): −0.5
H2-T10///H2-T22///H2-T9 1449875_s_at (Group G1, Modules 20) (sample x2): −0.2
Ifih1 1426276_at (Group G1, Modules 20) (sample x2): −0.3
Ifit1 1450783_at (Group G1, Modules 20) (sample x2): −0.5
Ifit3 1449025_at (Group G1, Modules 20) (sample x2): −0.5
Irf7 1417244_a_at (Group G1, Modules 20) (sample x2): −0.6
Irgm1 1418825_at (Group G1, Modules 20) (sample x2): −0.5
Mndal 1426906_at (Group G1, Modules 20) (sample x2): −0.4
Pml 1448757_at (Group G1, Modules 20) (sample x2): −0.3
Pml 1456103_at (Group G1, Modules 20) (sample x2): −0.3
Rnf213 1455500_at (Group G1, Modules 20) (sample x2): −0.4
Rsad2 1436058_at (Group G1, Modules 20) (sample x2): −0.5
Shisa5 1423986_a_at (Group G1, Modules 20) (sample x2): −0.5
Shisa5 1437503_a_at (Group G1, Modules 20) (sample x2): −0.4
Stat1 1450033_a_at (Group G1, Modules 20) (sample x2): −0.5
Stat1 1450034_at (Group G1, Modules 20) (sample x2): −0.6
Tdrd7 1426716_at (Group G1, Modules 20) (sample x2): −0.1
Tor1aip2 1418115_s_at (Group G1, Modules 20) (sample x2): −0.2
Tor1aip2 1418116_at (Group G1, Modules 20) (sample x2): −0
Tor1aip2 1435526_at (Group G1, Modules 20) (sample x2): −0.2
Trim12a 1437432_a_at (Group G1, Modules 20) (sample x2): −0.5
Uba7 1426970_a_at (Group G1, Modules 20) (sample x2): −0.4
Adar 1425405_a_at (Group G1, Modules 20) (sample x3): −0.2
Adar 1434268_at (Group G1, Modules 20) (sample x3): −0.8
Ddx58 1436562_at (Group G1, Modules 20) (sample x3): −0.4
Ddx58 1456890_at (Group G1, Modules 20) (sample x3): −0.4
Eif2ak2 1422005_at (Group G1, Modules 20) (sample x3): −0.5
G3bp2 1421323_a_at (Group G1, Modules 20) (sample x3): −0.4
Gm9706///Isg15 1431591_s_at (Group G1, Modules 20) (sample x3): −0.5
H2-T10///H2-T22///H2-T9 1449875_s_at (Group G1, Modules 20) (sample x3): −0.4
Ifih1 1426276_at (Group G1, Modules 20) (sample x3): −0.5
Ifit1 1450783_at (Group G1, Modules 20) (sample x3): −0.5
Ifit3 1449025_at (Group G1, Modules 20) (sample x3): −0.5
Irf7 1417244_a_at (Group G1, Modules 20) (sample x3): −0.5
Irgm1 1418825_at (Group G1, Modules 20) (sample x3): −0.6
Mndal 1426906_at (Group G1, Modules 20) (sample x3): −0.4
Pml 1448757_at (Group G1, Modules 20) (sample x3): −0.6
Pml 1456103_at (Group G1, Modules 20) (sample x3): −0.6
Rnf213 1455500_at (Group G1, Modules 20) (sample x3): −0.5
Rsad2 1436058_at (Group G1, Modules 20) (sample x3): −0.5
Shisa5 1423986_a_at (Group G1, Modules 20) (sample x3): −0.8
Shisa5 1437503_a_at (Group G1, Modules 20) (sample x3): −0.6
Stat1 1450033_a_at (Group G1, Modules 20) (sample x3): −0.5
Stat1 1450034_at (Group G1, Modules 20) (sample x3): −0.6
Tdrd7 1426716_at (Group G1, Modules 20) (sample x3): −0.3
Tor1aip2 1418115_s_at (Group G1, Modules 20) (sample x3): −0.2
Tor1aip2 1418116_at (Group G1, Modules 20) (sample x3): −0.2
Tor1aip2 1435526_at (Group G1, Modules 20) (sample x3): −0.5
Trim12a 1437432_a_at (Group G1, Modules 20) (sample x3): −0.5
Uba7 1426970_a_at (Group G1, Modules 20) (sample x3): −0.3
preferentially induced biological process relative to adjuvants targeting the same receptor (LN, z-scores and 40 module mapping): preferentially induced RNA biogenesis
Z score of gene expression, Adar (probe 1425405_a_at) [1]: −0.5
Z score of gene expression, Adar (probe 1434268_at) [1]: −0.1
Z score of gene expression, Ddx58 (probe 1436562_at) [1]: −0.5
Z score of gene expression, Ddx58 (probe 1456890_at) [1]: −0.6
Z score of gene expression, Eif2ak2 (probe 1422005_at) [1]: −0.5
Z score of gene expression, G3bp2 (probe 1421323_a_at) [1]: −0.5
Z score of gene expression, Gm9706///Isg15 (probe 1431591_s_at) [1]: −0.5
Z score of gene expression, H2-T10///H2-T22///H2-T9 (probe 1449875_s_at) [1]: −0.7
Z score of gene expression, Ifih1 (probe 1426276_at) [1]: −0.5
Z score of gene expression, Ifit1 (probe 1449025_at) [1]: −0.5
Z score of gene expression, Ifit1 (probe 1450783_at) [1]: −0.5
Z score of gene expression, Irf7 (probe 1417244_a_at) [1]: −0.4
Z score of gene expression, Irgm1 (probe 1418825_at) [1]: −0.5
Z score of gene expression, Mndal (probe 1426906_at) [1]: −0.5
Z score of gene expression, Pml (probe 1448757_at) [1]: −0.5
Z score of gene expression, Pml (probe 1456103_at) [1]: −0.6
Z score of gene expression, Rnf213 (probe 1455500_at) [1]: −0.5
Z score of gene expression, Rsad2 (probe 1436058_at) [1]: −0.5
Z score of gene expression, Shisa5 (probe 1423986_a_at) [1]: −0.5
Z score of gene expression, Shisa5 (probe 1437503_a_at) [1]: −0.5
Z score of gene expression, Stat1 (probe 1450033_a_at) [1]: −0.5
Z score of gene expression, Stat1 (probe 1450034_at) [1]: −0.5
Z score of gene expression, Tdrd7 (probe 1426716_at) [1]: −0.6
Z score of gene expression, Tor1aip2 (probe 1418115_s_at) [1]: −0.1
Z score of gene expression, Tor1aip2 (probe 1418116_at) [1]: −0.1
Z score of gene expression, Tor1aip2 (probe 1435526_at) [1]: −0.1
Z score of gene expression, Trim12a (probe 1437432_a_at) [1]: −0.4
Z score of gene expression, Uba7 (probe 1426970_a_at) [1]: −0.4
